According to patent US20240262727A1, “METHOD FOR IMPROVING BIOLOGICAL NITROGEN REMOVAL EFFECT OF LOW-TEMPERATURE SEWAGE” (Sichuan University, priority 2023, published 2024):

System: activated sludge
Experiment: Activated sludge SBR reactor, biological nitrogen removal with added AHLs signal molecule
Settings: remaining steps as Example 1 (10° C.)

## CCCCCCCCCCCC(=O)N[C@H]1CCOC1=O [C12-HSL, N-dodecanoyl-L-homoserine lactone]
10 μg/L after addition
  ammonia-nitrogen removal efficiency: 90.79%
100 μg/L after addition
  ammonia-nitrogen removal efficiency: 80.95%
